Source: PubChem BioAssay (NCI)
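Cells were grown in 96-well plates and exposed to each compound for 48 hours at five concentrations; endpoints were interpolated linearly between bracketing concentrations, or set to the highest concentration if not reached. Definition used: TGI = concentration required for complete inhibition of growth.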

Legend:
Experiment in all cases: DTP human tumour cell line panel, 48 h
HOP-18 NSCLC = tested on: HOP-18 NSCLC
RXF-631 renal = tested on: RXF-631 renal
DMS 273 small cell lung = tested on: DMS 273 small cell lung
MALME-3M melanoma = tested on: MALME-3M melanoma
RXF 393 renal = tested on: RXF 393 renal
UACC-257 melanoma = tested on: UACC-257 melanoma
SNB-19 CNS = tested on: SNB-19 CNS
NCI-H23 lung = tested on: NCI-H23 lung
OVCAR-5 ovarian = tested on: OVCAR-5 ovarian
COLO 205 colon = tested on: COLO 205 colon
LOX IMVI melanoma = tested on: LOX IMVI melanoma
TK-10 renal = tested on: TK-10 renal
IGROV1 ovarian = tested on: IGROV1 ovarian
SW-620 colon = tested on: SW-620 colon
NCI-H522 lung = tested on: NCI-H522 lung
KM12 colon = tested on: KM12 colon
HOP-92 NSCLC = tested on: HOP-92 NSCLC
DMS 114 small cell lung = tested on: DMS 114 small cell lung
SNB-78 CNS = tested on: SNB-78 CNS
ACHN renal = tested on: ACHN renal
SR leukemia = tested on: SR leukemia
HCC-2998 colon = tested on: HCC-2998 colon
HCT-116 colon = tested on: HCT-116 colon
HT29 colon = tested on: HT29 colon
SF-539 CNS = tested on: SF-539 CNS
A549 NSCLC = tested on: A549 NSCLC
SF-295 CNS = tested on: SF-295 CNS
SF-268 CNS = tested on: SF-268 CNS
CAKI-1 renal = tested on: CAKI-1 renal
NCI-H460 lung = tested on: NCI-H460 lung
U251 CNS = tested on: U251 CNS
UO-31 renal = tested on: UO-31 renal
OVCAR-3 ovarian = tested on: OVCAR-3 ovarian
SK-MEL-28 melanoma = tested on: SK-MEL-28 melanoma
XF 498 CNS = tested on: XF 498 CNS
SK-MEL-5 melanoma = tested on: SK-MEL-5 melanoma
SNB-75 CNS = tested on: SNB-75 CNS
M19-MEL melanoma = tested on: M19-MEL melanoma
UACC-62 melanoma = tested on: UACC-62 melanoma
HL-60(TB) leukemia = tested on: HL-60(TB) leukemia
CCRF-CEM leukemia = tested on: CCRF-CEM leukemia
OVCAR-8 ovarian = tested on: OVCAR-8 ovarian
MOLT-4 leukemia = tested on: MOLT-4 leukemia
K-562 leukemia = tested on: K-562 leukemia
HOP-62 NSCLC = tested on: HOP-62 NSCLC
786-0 renal = tested on: 786-0 renal
DLD-1 colon = tested on: DLD-1 colon
M14 melanoma = tested on: M14 melanoma
OVCAR-4 ovarian = tested on: OVCAR-4 ovarian
LXFL 529 NSCLC = tested on: LXFL 529 NSCLC
SN12C renal = tested on: SN12C renal

Measured: TGI

NC1=NS(=O)(=O)Nc2nc(-c3ccc(Cl)cc3)c(-c3ccc(Cl)cc3)nc21
> 100 µM: all assays above
